This passage reports IC50 results from ChEMBL document CHEMBL5727760, “Pyrrolidine derivatives” (2020).

The assay addresses Cathepsin S (Homo sapiens, UniProt P25774). Briefly: Enzyme Inhibition Assay: Enzyme activity is measured by observing the increase in fluorescence intensity caused by cleavage of a peptide substrate containing a fluorophore whose emission is quenched in the intact peptide.Assay buffer: 100 mM potassium phosphate pH 6.5, EDTA-Na 5 mM, Triton X-100 0.001%, DTT 5 mM.Enzymes (all at 1 nM): human and mouse Cathepsin S, Cat K, Cat B, Cat L.Substrate (20 μM): Z-Val-Val-Arg-AMC, except for Cat K which uses Z-Leu-Arg-AMC (both from Bachem).Z=Benzyloxycarbonyl.AMC=7-Amino-4-Methyl-Coumarin.DTT=dithiothreitol.Final volume: 100 μL.Excitation 360 nm, Emission 465 nm.Enzyme is added to the substance dilutions in 96-well microtitre plates and the reaction is started with substrate.

Cathepsin S, sequence (P25774 whole entry): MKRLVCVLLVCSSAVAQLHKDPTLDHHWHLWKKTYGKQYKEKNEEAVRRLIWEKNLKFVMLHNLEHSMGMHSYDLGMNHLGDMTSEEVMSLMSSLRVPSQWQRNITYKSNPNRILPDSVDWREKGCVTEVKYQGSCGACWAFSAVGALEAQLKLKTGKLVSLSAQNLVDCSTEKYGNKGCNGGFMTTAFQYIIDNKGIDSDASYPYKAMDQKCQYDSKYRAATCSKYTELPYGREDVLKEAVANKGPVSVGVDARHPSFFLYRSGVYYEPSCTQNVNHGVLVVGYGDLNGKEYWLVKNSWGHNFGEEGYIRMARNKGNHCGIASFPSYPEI

Regarding `N#CC1(NC(=O)[C@@H]2C[C@@H](S(=O)(=O)c3ccc(-n4cnc(Cl)n4)cc3C(F)(F)F)CN2C(=O)C2(C(F)(F)F)CC2)CC1`, 0.625 nM corresponded to half-maximal inhibition (IC50). This counts as sub-nanomolar.

The compound `N#CC1(NC(=O)[C@@H]2C[C@@H](S(=O)(=O)c3ccc(-n4cc(C(F)(F)F)cn4)cc3C(F)(F)F)CN2C(=O)C2(C(F)(F)F)CC2)CC1` had an IC50 of 0.752 nM. This IC50 and that of the compound before are within 1.5-fold of each other.

`Cc1nnnn1-c1ccc(S(=O)(=O)[C@@H]2C[C@@H](C(=O)NC3(C#N)CC3)N(C(=O)C3(C(F)(F)F)CC3)C2)c(C(F)(F)F)c1` displayed an IC50 of 0.349 nM.

Turning to `N#CC1(NC(=O)[C@@H]2C[C@@H](S(=O)(=O)c3ccc(-n4cnnn4)cc3C(F)(F)F)CN2C(=O)C2(C(F)(F)F)CC2)CC1`, the IC50 was 0.584 nM.

Consider `N#CC1(NC(=O)[C@@H]2C[C@@H](S(=O)(=O)c3ccc(-n4cncn4)cc3C(F)(F)F)CN2C(=O)C2(C(F)(F)F)CC2)CC1`, for which inhibition was half-maximal at 0.391 nM (IC50).

Compound `N#CC1(NC(=O)[C@@H]2C[C@@H](S(=O)(=O)c3ccc(-n4nccn4)cc3C(F)(F)F)CN2C(=O)C2(C(F)(F)F)CC2)CC1` yielded an IC50 of 0.506 nM.

By IC50 is commonly meant the midpoint of a concentration-inhibition curve.
